Reference: patent US20050070508A1, “Napthalene carboxamides and their derivatives useful as new anti-angiogenic agents” (AGOURON PHARMACEUTICALS, INC., priority 2003, published 2005)

Assays:
[1] = target: T1, human vascular endothelial growth factor receptor 2 (VEGF-R2) (Homo sapiens, UniProt P35968, DEL940-989/E990V); assay: VEGF-R2 coupled spectrophotometric assay (FLVK); type: biochemical; details: unphosphorylated VEGF-R2D50 (FLVK)
T1 construct: VEGF-R2D50 contains residues 806-939 and 990-1171; made in house; host or cells: baculovirus/insect cell system
Source text: This construct determines the ability of a test compound to inhibit tyrosine kinase activity. A construct (VEGF-R2D50) of the cytosolic domain of human vascular endothelial growth factor receptor 2 (VEGF-R2) lacking the 50 central residues of the 68 residues of the kinase insert domain was expressed in a baculovirus/insect cell system. Of the 1356 residues of full-length VEGF-R2, VEGF-R2D50 contains residues 806-939 and 990-1171, and also one point mutation (E990V) within the kinase insert domain relative to wild-type VEGF-R2. Autophosphorylation of the purified construct was performed by incubation of the enzyme at a concentration of […] in the presence of 3 mM ATP and 40 mM MgCl2 in 100 mM HEPES, pH 7.5, containing 5% glycerol and 5 mM DTT, at 4° C. for 2 h. […] See Parast et al., Biochemistry, 37, 16788-16801 (1998).
The production of ADP from ATP that accompanies phosphoryl transfer was coupled to oxidation of NADH using phosphoenolpyruvate (PEP) and a system having pyruvate kinase (PK) and lactic dehydrogenase (LDH). The oxidation of NADH was monitored by following the decrease of absorbance at 340 nm (e340=6.22 cm^−1 mM^−1) using a Beckman DU 650 spectrophotometer. Assay conditions for phosphorylated VEGF-R2D50 (indicated as FLVK-P in the tables below) were the following: 1 mM PEP; […]; 50 units of LDH/mL; 20 units of PK/mL; 5 mM DTT; 5.1 mM poly(E4Y1); 1 mM ATP; and 25 mM MgCl2 in 200 mM HEPES, pH 7.5. Assay conditions for unphosphorylated VEGF-R2D50 (indicated as FLVK in the tables) were the following: 1 mM PEP; […]; 50 units of LDH/mL; 20 units of PK/mL; 5 mM DTT; 20 mM poly(E4Y1); 3 mM ATP; and 60 mM MgCl2 and 2 mM MnCl2 in 200 mM HEPES, pH 7.5. Assays were initiated with 5 to 40 nM of enzyme. Ki values were determined by measuring enzyme activity in the presence of varying concentrations of test compounds. The percent inhibition at 50 nm (% inhibition @ 50 nm) was determined by linear least-squares regression analysis of absorbance as a function of time. The binding inhibitions were fitted to equation as described by Morrison. The data were analyzed using Enzyme Kinetic and Kaleidagraph software.

[2] = system: human umbilical vein endothelial cells (HUVEC); assay: HUVEC+VEGF Proliferation Assay; type: cell-based; details: VEGF-stimulated proliferation, final VEGF 6 ng/mL, 72 hours, MTT dye reduction
Protocol: This assay determines the ability of a test compound to inhibit the growth factor-stimulated proliferation of human umbilical vein endothelial cells (“HUVEC”). HUVEC cells (passage 3-4, Clonetics, Corp.) were thawed into EGM2 culture medium (Clonetics Corp) in T75 flasks. Fresh EGM2 medium was added to the flasks 24 hours later. Four or five days later, cells were exposed to another culture medium (F12K medium supplemented with 10% fetal bovine serum (FBS), […] endothelial cell growth supplement (ECGS), and 0.1 mg/mL heparin). Exponentially-growing HUVEC cells were used in experiments thereafter. Ten to twelve thousand HUVEC cells were plated in 96-well dishes in […] of rich, culture medium (described above). The cells were allowed to attach for 24 hours in this medium. The medium was then removed by aspiration and […] of starvation media (F12K+1% FBS) was added to each well. After 24 hours, […] of test agent dissolved in 1% DMSO in starvation medium or this vehicle alone was added into each treatment well; the final DMSO concentration was 0.1%. One hour later, […] of VEGF (30 ng/mL) in starvation media was added to all wells except those containing untreated controls; the final VEGF concentration was 6 ng/mL. Cellular proliferation was quantified 72 hours later by MTT dye reduction, at which time cells were exposed for 4 hours MTT (Promega Corp.). Dye reduction was stopped by addition of a stop solution (Promega Corp.) and absorbance at 595 nm was determined on a 96-well spectrophotometer plate reader.

T1 sequence (P35968 with tags, fused parts or gaps DEL940-989/E990V limits assumed): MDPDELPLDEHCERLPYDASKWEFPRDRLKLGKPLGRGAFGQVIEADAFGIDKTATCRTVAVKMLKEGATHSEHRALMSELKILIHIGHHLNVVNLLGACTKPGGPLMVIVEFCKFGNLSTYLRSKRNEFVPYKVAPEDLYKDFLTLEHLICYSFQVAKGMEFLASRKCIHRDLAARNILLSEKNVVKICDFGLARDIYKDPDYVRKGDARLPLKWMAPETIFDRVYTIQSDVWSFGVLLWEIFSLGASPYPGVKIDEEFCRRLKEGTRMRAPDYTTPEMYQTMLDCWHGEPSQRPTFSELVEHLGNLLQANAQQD

Row | SMILES | Ki [1] [nM] | IC50 [2] [nM]
1 | O=C(Nc1ccc(N2CCC(O)CC2)nc1)c1cccc2cc(Oc3ccnc4ccsc34)ccc12 [Example 34, 6-(Thieno[3,2-b]pyridin-7-yloxy)-naphthalene-1-carboxylic acid (4-hydroxy-3,4,5,6-tetrahydro-2H-[1,2′]bipyridinyl-5′-yl)-amide] | < 1 | 1 to 10
2 | O=C(Nc1ccc(N2CCOCC2)nc1)c1cccc2cc(Oc3ccnc4ccsc34)ccc12 [Example 35, 6-(Thieno[3,2-b]pyridin-7-yloxy)-naphthalene-1-carboxylic acid (6-morpholin-4-yl-pyridin-3-yl)-amide] | < 1 | 1 to 10
3 | O=C(NCCCN1CCOCC1)c1cccc2cc(Oc3ccnc4ccsc34)ccc12 [Example 39, 6-(Thieno[3,2-b]pyridin-7-yloxy)-naphthalene-1-carboxylic acid (3-morpholin-4-yl-propyl)-amide] | 1 to 10 | 1 to 10
4 | O=C(NCCCN1CCOCC1)c1cccc2cc(Oc3ncnc4ccsc34)ccc12 [Example 42, 6-(Thieno [3,2-d]pyrimidin-4-yloxy)-naphthalene-1-carboxylic acid (3-morpholin-4-yl-propyl)-amide] | 1 to 10 | > 10
5 | CNC(=O)c1cccc2cc(Oc3ccnc4cc(OC)ccc34)ccc12 [Example 43, 6-(7-Methoxy-quinolin-4-yloxy)-naphthalene-1-carboxylic Acid Methylamide] | 1 to 10 | 1 to 10
6 | COc1ccc2c(Oc3ccc4c(C(=O)NC5CC5)cccc4c3)ccnc2c1 [Example 51, 6-(7-Methoxy-quinolin-4-yloxy)-naphthalene-1-carboxylic acid cyclopropylamide] | < 1 | 1 to 10

Second part, led by results:

Row | Ki [1] [nM] | SMILES | IC50 [2] [nM]
7 | < 1 | CNC(=O)c1cccc2cc(Oc3ccnc4cc(OCCN5CCOCC5)ccc34)ccc12 [Example 45, 6-[7-(2-Morpholin-4-yl-ethoxy)-quinolin-4-yloxy]-naphthalene-1-carboxylic Acid Methylamide] | < 1
8 | 1 to 10 | CNC(=O)c1cccc2cc(Oc3ccnc4cc(OCCN5CCCCC5)ccc34)ccc12 [Example 46, 6-[7-(2-Piperidin-1-yl-ethoxy)-quinolin-4-yloxy]-naphthalene-1-carboxylic Acid Methylamide] | < 1
9 | 1 to 10 | CCCCNC(=O)c1cccc2cc(Oc3ccnc4cc(OCCN5CCCC5)ccc34)ccc12 [Example 49, 6-[7-(2-Pyrrolidin-1-yl-ethoxy)-quinolin-4-yloxy]-naphthalene-1-carboxylic Acid Butylamide] | 1 to 10
10 | 1 to 10 | COc1ccc2c(Oc3ccc4c(C(=O)NC(C)C)cccc4c3)ccnc2c1 [Example 50, 6-(7-Methoxy-quinolin-4-yloxy)-naphthalene-1-carboxylic Acid Isopropylamide] | > 10
